{"source": "PubChem BioAssay (NCI)", "experiment_in_all_cases": "growth of human tumour cells (NCI), 48 h", "key": {"OVCAR-5 ovarian": {"test_system": "OVCAR-5 ovarian"}, "T-47D breast": {"test_system": "T-47D breast"}, "SK-MEL-2 melanoma": {"test_system": "SK-MEL-2 melanoma"}, "COLO 205 colon": {"test_system": "COLO 205 colon"}, "MALME-3M melanoma": {"test_system": "MALME-3M melanoma"}, "NCI-H460 lung": {"test_system": "NCI-H460 lung"}, "SK-MEL-5 melanoma": {"test_system": "SK-MEL-5 melanoma"}, "RXF 393 renal": {"test_system": "RXF 393 renal"}, "HCT-116 colon": {"test_system": "HCT-116 colon"}, "NCI/ADR-RES ovarian": {"test_system": "NCI/ADR-RES ovarian"}, "HCT-15 colon": {"test_system": "HCT-15 colon"}, "RPMI-8226 leukemia": {"test_system": "RPMI-8226 leukemia"}, "U251 CNS": {"test_system": "U251 CNS"}, "HT29 colon": {"test_system": "HT29 colon"}, "A549 NSCLC": {"test_system": "A549 NSCLC"}, "BT-549 breast": {"test_system": "BT-549 breast"}, "A498 renal": {"test_system": "A498 renal"}, "SNB-75 CNS": {"test_system": "SNB-75 CNS"}, "CAKI-1 renal": {"test_system": "CAKI-1 renal"}, "HOP-62 NSCLC": {"test_system": "HOP-62 NSCLC"}, "MDA-N": {"test_system": "MDA-N"}, "HCC-2998 colon": {"test_system": "HCC-2998 colon"}, "SK-MEL-28 melanoma": {"test_system": "SK-MEL-28 melanoma"}, "SW-620 colon": {"test_system": "SW-620 colon"}, "M14 melanoma": {"test_system": "M14 melanoma"}, "SNB-19 CNS": {"test_system": "SNB-19 CNS"}, "SK-OV-3 ovarian": {"test_system": "SK-OV-3 ovarian"}, "ACHN renal": {"test_system": "ACHN renal"}, "TK-10 renal": {"test_system": "TK-10 renal"}, "NCI-H23 lung": {"test_system": "NCI-H23 lung"}, "UACC-257 melanoma": {"test_system": "UACC-257 melanoma"}, "IGROV1 ovarian": {"test_system": "IGROV1 ovarian"}, "UACC-62 melanoma": {"test_system": "UACC-62 melanoma"}, "EKVX NSCLC": {"test_system": "EKVX NSCLC"}, "HS 578T breast": {"test_system": "HS 578T breast"}, "DU-145 prostate": {"test_system": "DU-145 prostate"}, "MDA-MB-231 breast": {"test_system": "MDA-MB-231 breast"}, "UO-31 renal": {"test_system": "UO-31 renal"}, "KM12 colon": {"test_system": "KM12 colon"}, "786-0 renal": {"test_system": "786-0 renal"}, "SF-295 CNS": {"test_system": "SF-295 CNS"}, "CCRF-CEM leukemia": {"test_system": "CCRF-CEM leukemia"}, "SF-539 CNS": {"test_system": "SF-539 CNS"}, "NCI-H522 lung": {"test_system": "NCI-H522 lung"}, "SR leukemia": {"test_system": "SR leukemia"}, "SF-268 CNS": {"test_system": "SF-268 CNS"}, "K-562 leukemia": {"test_system": "K-562 leukemia"}, "OVCAR-3 ovarian": {"test_system": "OVCAR-3 ovarian"}, "MOLT-4 leukemia": {"test_system": "MOLT-4 leukemia"}, "NCI-H226 lung": {"test_system": "NCI-H226 lung"}, "LOX IMVI melanoma": {"test_system": "LOX IMVI melanoma"}, "SN12C renal": {"test_system": "SN12C renal"}, "MDA-MB-435": {"test_system": "MDA-MB-435"}, "OVCAR-4 ovarian": {"test_system": "OVCAR-4 ovarian"}, "MCF7 breast": {"test_system": "MCF7 breast"}, "OVCAR-8 ovarian": {"test_system": "OVCAR-8 ovarian"}, "PC-3 prostate": {"test_system": "PC-3 prostate"}}, "note": "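Cultured in 96-well plates, cells were exposed to test compound for 48 hours across five concentrations. TGI marks complete inhibition of growth.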", "data": [{"smiles": "Cc1cccc(NC(Nc2cccc(C)c2)=C(C(Cl)=C(Cl)Cl)[N+](=O)[O-])c1", "values": [{"measurement": "TGI", "setting": "OVCAR-5 ovarian", "result": "> 72.1", "unit": "µM"}, {"measurement": "TGI", "setting": "T-47D breast", "result": "> 53", "unit": "µM"}, {"measurement": "TGI", "setting": "SK-MEL-2 melanoma", "result": 48.5, "unit": "µM"}, {"measurement": "TGI", "setting": "COLO 205 colon", "result": 28.3, "unit": "µM"}, {"measurement": "TGI", "setting": "MALME-3M melanoma", "result": 29, "unit": "µM"}, {"measurement": "TGI", "setting": "NCI-H460 lung", "result": "> 62.5", "unit": "µM"}, {"measurement": "TGI", "setting": "SK-MEL-5 melanoma", "result": 19.6, "unit": "µM"}, {"measurement": "TGI", "setting": "RXF 393 renal", "result": 22.8, "unit": "µM"}, {"measurement": "TGI", "setting": "HCT-116 colon", "result": "> 46.4", "unit": "µM"}, {"measurement": "TGI", "setting": "NCI/ADR-RES ovarian", "result": 35.4, "unit": "µM"}, {"measurement": "TGI", "setting": "HCT-15 colon", "result": 33.1, "unit": "µM"}, {"measurement": "TGI", "setting": "RPMI-8226 leukemia", "result": "> 100", "unit": "µM"}, {"measurement": "TGI", "setting": "U251 CNS", "result": 36.3, "unit": "µM"}, {"measurement": "TGI", "setting": "HT29 colon", "result": "> 54", "unit": "µM"}, {"measurement": "TGI", "setting": "A549 NSCLC", "result": "> 68", "unit": "µM"}, {"measurement": "TGI", "setting": "BT-549 breast", "result": 26.3, "unit": "µM"}, {"measurement": "TGI", "setting": "A498 renal", "result": "> 86", "unit": "µM"}, {"measurement": "TGI", "setting": "SNB-75 CNS", "result": "> 68.6", "unit": "µM"}, {"measurement": "TGI", "setting": "CAKI-1 renal", "result": 35.6, "unit": "µM"}, {"measurement": "TGI", "setting": "HOP-62 NSCLC", "result": 41.7, "unit": "µM"}, {"measurement": "TGI", "setting": "MDA-N", "result": "> 35.1", "unit": "µM"}, {"measurement": "TGI", "setting": "HCC-2998 colon", "result": "> 57.8", "unit": "µM"}, {"measurement": "TGI", "setting": "SK-MEL-28 melanoma", "result": 41.2, "unit": "µM"}, {"measurement": "TGI", "setting": "SW-620 colon", "result": 34.2, "unit": "µM"}, {"measurement": "TGI", "setting": "M14 melanoma", "result": "> 52", "unit": "µM"}, {"measurement": "TGI", "setting": "SNB-19 CNS", "result": "> 63", "unit": "µM"}, {"measurement": "TGI", "setting": "SK-OV-3 ovarian", "result": "> 100", "unit": "µM"}, {"measurement": "TGI", "setting": "ACHN renal", "result": 43.1, "unit": "µM"}, {"measurement": "TGI", "setting": "TK-10 renal", "result": 28.5, "unit": "µM"}, {"measurement": "TGI", "setting": "NCI-H23 lung", "result": 23.6, "unit": "µM"}, {"measurement": "TGI", "setting": "UACC-257 melanoma", "result": "> 53.4", "unit": "µM"}, {"measurement": "TGI", "setting": "IGROV1 ovarian", "result": 20.3, "unit": "µM"}, {"measurement": "TGI", "setting": "UACC-62 melanoma", "result": 40.6, "unit": "µM"}, {"measurement": "TGI", "setting": "EKVX NSCLC", "result": "> 59", "unit": "µM"}, {"measurement": "TGI", "setting": "HS 578T breast", "result": 11.2, "unit": "µM"}, {"measurement": "TGI", "setting": "DU-145 prostate", "result": "> 57.5", "unit": "µM"}, {"measurement": "TGI", "setting": "MDA-MB-231 breast", "result": 17, "unit": "µM"}, {"measurement": "TGI", "setting": "UO-31 renal", "result": 26.4, "unit": "µM"}, {"measurement": "TGI", "setting": "KM12 colon", "result": 49.5, "unit": "µM"}, {"measurement": "TGI", "setting": "786-0 renal", "result": 44.3, "unit": "µM"}, {"measurement": "TGI", "setting": "SF-295 CNS", "result": "> 66.8", "unit": "µM"}, {"measurement": "TGI", "setting": "CCRF-CEM leukemia", "result": "> 100", "unit": "µM"}, {"measurement": "TGI", "setting": "SF-539 CNS", "result": 23.4, "unit": "µM"}, {"measurement": "TGI", "setting": "NCI-H522 lung", "result": 21, "unit": "µM"}, {"measurement": "TGI", "setting": "SR leukemia", "result": 42.8, "unit": "µM"}, {"measurement": "TGI", "setting": "SF-268 CNS", "result": 30.6, "unit": "µM"}, {"measurement": "TGI", "setting": "K-562 leukemia", "result": "> 100", "unit": "µM"}, {"measurement": "TGI", "setting": "OVCAR-3 ovarian", "result": 44.6, "unit": "µM"}, {"measurement": "TGI", "setting": "MOLT-4 leukemia", "result": "> 20", "unit": "µM"}, {"measurement": "TGI", "setting": "NCI-H226 lung", "result": 22.5, "unit": "µM"}, {"measurement": "TGI", "setting": "LOX IMVI melanoma", "result": 28.7, "unit": "µM"}, {"measurement": "TGI", "setting": "SN12C renal", "result": 24, "unit": "µM"}, {"measurement": "TGI", "setting": "MDA-MB-435", "result": 28.7, "unit": "µM"}, {"measurement": "TGI", "setting": "OVCAR-4 ovarian", "result": "> 82", "unit": "µM"}, {"measurement": "TGI", "setting": "MCF7 breast", "result": "> 100", "unit": "µM"}, {"measurement": "TGI", "setting": "OVCAR-8 ovarian", "result": 27.6, "unit": "µM"}, {"measurement": "TGI", "setting": "PC-3 prostate", "result": "> 92.9", "unit": "µM"}]}]}
